# Experimental data as given in publication PMC11979273, “A phase I study to evaluate the safety, tolerability, and pharmacokinetics of HEC113995PA·H2O, a novel dual-acting serotonergic antidepressant, in healthy subjects” (Frontiers in Pharmacology, 2025).
# Where two headings read alike, the source gives them in different places.
# Key:
# [1] = Single ascending-dose study, safety (adverse events); format: in vivo, human
# Procedure: The study comprised a total of 7 dose groups (2.5, 5, 10, 20, 40, 60, and 80 mg groups, respectively). The first dose group (2.5 mg) consisted of 8 subjects, with 6 receiving HEC113995PA·H2O and 2 receiving placebo. Dose groups 2–7 each included 10 subjects, with 8 subjects receiving HEC113995PA·H2O and 2 subjects receiving placebo. Male and female participants were randomly assigned to the groups. Serial blood samples were collected before and after drug administration to determine the plasma concentration of pharmacokinetics (PK) and to evaluate the pharmacokinetic characteristics. The time points of blood collection and safety evaluation of PK in the second to seventh dose groups were adjusted based on the results of the first dose group. Drug safety and tolerability were evaluated on day 2 and 4 in the first dose group and on day 4 and 7 in the second to seventh dose groups. The trial was conducted in a dose-escalation manner, with progression to the next dose arm only after the safety of the previous arm had been evaluated. In the fourth group (20 mg group), in addition to blood samples, urine and stool samples were also collected for in vivo drug metabolic transformation studies.
# (§1) Safety indicators were assessed through adverse events (AE), clinical laboratory tests (including blood routine, blood biochemistry, urine routine), vital signs monitoring (ear temperature), pulse, respiration and blood pressure in a sitting position), 12-lead electrocardiogram (ECG) and physical examinations. Adverse events (AE) and serious adverse events (SAE) were evaluated following the criteria outlined in National Cancer Institute Common Terminology Criteria for Adverse Events (NCI-CTCAE) version 5.0.
# (§2) Any adverse events that occurred in all subjects during the clinical trial were recorded with the following details: AE name, occurrence time, end time, severity, whether it was classified as a SAE, severity criteria (if applicable), treatment measures and outcomes, actions taken on investigational drug due to the AE, and the causal relationship between the AE and administrated drug, etc. Each AE was recorded separately.
# The subjects were under close monitoring at the clinical research center until the sample retention and safety evaluation were completed. During the safety trial, drug intolerance of a given dose was defined as follows: grade 2 or higher drug-related AEs occurred in more than half of the subjects, or grade 3 or higher drug-related AEs occurred in more than one quarter of the subjects. The dose escalation was halted after drug intolerance occurred.
# [2] = system: rodent; experiment: In vivo rodent studies (comparison with Vilazodone, sedation); details: rodent behavioral despair models; unpublished data
# [3] = Hygroscopicity; format: physicochemical; details: solid
# [4] = Food effect study, safety (adverse events); format: in vivo, human
# Source text: A total of 18 healthy subjects of both genders, were assigned randomly to three sequences A, B, and C (n = 6). All subjects received HEC113995PA·H2O tablets, with a total of 3 times administered during the trial, once per cycle, and a washout period of ≥11 days. In sequence A, the order of administration was as follows: fasting, after a standard meal, and after a high-fat meal. In sequence B, the order of administration was after a standard meal, after a high-fat meal, and fasting. Sequence C subjects were administered in the following order: after a high-fat meal, fasting, and after a standard meal. During the fed periods, a single oral dose of HEC113995PA·H2O tablet 20 mg was administered within 30 min after consumption of a standard meal (total calories: approximately 600 kcal), or a high-fat, high-calorie meal (total calories: approximately 800 kcal–1,000 kcal, which derives about 150, 250, and 500–600 kcal from protein, carbohydrate, and fat, respectively). Serial blood samples were collected before and after each cycle for PK determination of plasma concentration and the evaluation of pharmacokinetic characteristics. Safety and tolerability were assessed on days 4 and 28.
# as §1, §2
# [5] = Acid-base ionization constants; format: physicochemical
# [6] = FE trial 20 mg, 1 case, after a high-fat meal
# [7] = FE trial 20 mg, after a high-fat meal
# [8] = FE trial 20 mg, after a high-fat meal, 5 incidents
# [9] = FE trial 20 mg, after a standard meal
# [10] = FE trial 20 mg, fasting conditions
# [11] = FE trial 20 mg, overall, 2 cases
smiles,measurement,setting,value
Cc1nc(-c2cnc(N3CCN(CCCc4c[nH]c5ccc(C#N)cc45)CC3)nc2)sc1C(N)=O [HEC113995PA·H2O],incidence of subjects experiencing TEAEs,"[1]; SAD 2.5 mg group, 1 case",16.7%
same,incidence of subjects experiencing TEAEs,"[1]; SAD 5 mg group, 3 cases",37.5%
same,number of subjects experiencing TEAEs,[1]; SAD 10 mg group,0 case
same,incidence of subjects experiencing TEAEs,"[1]; SAD 20 mg group, 5 cases",62.5%
same,incidence of subjects experiencing TEAEs,"[1]; SAD 40 mg group, 6 cases",75%
same,incidence of subjects experiencing TEAEs,"[1]; SAD 60 mg group, 7 cases",87.5%
same,incidence of subjects experiencing TEAEs,"[1]; SAD 80 mg group, 7 cases",87.5%
same,incidence of subjects experiencing TEAEs,"[1]; SAD overall safety analysis set incl. placebo, 36 subjects",52.9%
same,incidence of subjects experiencing TRAE,"[1]; SAD overall safety analysis set, 33 cases",48.5%
same,TRAE incidence: abdominal distension,"[1]; SAD overall, 1 case",1.9%
same,TRAE incidence: elevated conjugated bilirubin,"[1]; SAD overall, 1 case",1.9%
same,TRAE incidence: elevated serum bilirubin,"[1]; SAD overall, 1 case",1.9%
same,TRAE incidence: elevated serum creatine phosphokinase,"[1]; SAD overall, 1 case",1.9%
same,TRAE incidence: hyperuricemia,"[1]; SAD overall, 5 cases",7.4%
same,TRAE incidence: nausea,"[1]; SAD overall, 5 cases",7.4%
same,TRAE incidence: dizziness,"[1]; SAD overall, 8 cases",11.8%
same,TRAE incidence: elevated triglycerides,"[1]; SAD overall, 8 cases",11.8%
same,TRAE incidence: diarrhea,"[1]; SAD overall, 13 cases",19.1%
same,severity of elevated conjugated bilirubin,"[1]; SAD, CTCAE 5.0",grade 2
same,severity of other TRAEs,"[1]; SAD, CTCAE 5.0, spontaneously relieved without treatment",grade 1
same,tolerability,"[1]; healthy Chinese subjects, single dose range 2.5–80 mg",well tolerated
same,efficacy relative to HEC61139 (Vilazodone),[2],more potent efficacy
same,hygroscopicity,[3],slight hygroscopicity
same,safety and tolerability,"[4]; 20 mg fasting, after a standard meal and after a high-fat meal",good safety and tolerability
same,TRAE incidence: elevated blood bilirubin,[4]; [6],5.6%
same,TRAE incidence: elevated conjugated bilirubin,[4]; [6],5.6%
same,TRAE: elevated blood triglycerides,[4]; [7],1 case
same,TRAE: elevated blood uric acid,[4]; [7],2 cases
same,TRAE: nausea,[4]; [7],1 case
same,TEAE incidence,[4]; [8],27.8%
same,TRAE incidence,[4]; [8],27.8%
same,TRAE: elevated blood uric acid,[4]; [9],2 cases
same,TRAE: nausea,[4]; [9],1 case
same,TRAE incidence,"[4]; FE trial 20 mg, after a standard meal, 3 incidents",16.7%
same,TEAE incidence,"[4]; FE trial 20 mg, after a standard meal, 4 incidents",22.2%
same,TEAE incidents,"[4]; FE trial 20 mg, fasting administration",6 incidents
same,TRAE incidence,"[4]; FE trial 20 mg, fasting administration, 4 incidents",22.2%
same,TRAE: elevated blood triglycerides,[4]; [10],1 case
same,TRAE: elevated blood uric acid,[4]; [10],1 case
same,TRAE: nausea,[4]; [10],2 cases
same,TRAE incidence: elevated blood triglycerides,[4]; [11],11.1%
same,TRAE incidence: nausea,[4]; [11],11.1%
same,TRAE incidence: elevated blood uric acid,"[4]; FE trial 20 mg, overall, 4 cases",22.2%
same,incidence of subjects experiencing TRAEs,"[4]; FE trial 20 mg, overall, 9 subjects, 13 TRAEs",50.0%
same,incidence of subjects experiencing TEAE,"[4]; FE trial 20 mg, overall, 11 subjects, 20 incidents",61.1%
same,severity of all TRAEs,"[4]; FE trial 20 mg, resolved spontaneously without treatment",Grade 1
same,pKa,[5]; read-out: acid-base ionization constant pKa1,6.46
same,pKa,[5]; read-out: acid-base ionization constant pKa2,7.37
